Entries after “also recorded” stand apart in the source; their conditions may differ.
Tests used:
[1] = tested on: perivascular WAT cells (PDGFRβ+ ASC); test: Biodistribution of biotinylated synthetic cyclic peptide (streptavidin-Cy3), WAT; type: in vivo, mouse; details: biotinylated cyclic peptide i.v., 1 hr, CD31 / CD45 co-staining
Description: (§1) FIGS. 2A-J depict the validation of cyclic WAT7 Peptide (SEQ ID NOS: 13) Homing to ASC. Panels A-D are confocal anti-phage (red) and anti-CD31 (bright green) immunofluorescence in paraffin sections of formalin-fixed WAT and lung from mice intravenously injected with phage displaying WAT-homing peptide WAT7 (SEQ ID NOS: 13 AND 14) or a lung-homing peptide LU2 (SEQ ID NOS: 19). […] upon digital channel merging indicates localization (arrow) of phage on non-endothelial perivascular cells observed for WAT7 (SEQ ID NOS: 13) in WAT (A) but not in lung (B), and for LU2 (SEQ ID NO: 19) in lung (D) but not in WAT (C). […] Note the association (arrow) of cyclic WAT7 (SEQ ID NOS: 13) specifically with perivascular WAT cells (E) in a pattern overlapping with PDGFRβ expressed on ASC (F-G). Like PDGFRβ, WAT7 is not associated with CD31+ endothelial cells (E) or CD45+ hematopoietic cells (H). WAT7 was not detected in lung (I) despite the abundance of PDGFRβ+LSC (J). Nuclear TOPRO3 staining is blue. Scale bar: 100 μM.
(§2) Mouse Tissue and Cell Analysis by Immunofluorescence: Peptides chemically synthesized, cyclized via their N- and C-terminal cysteines, purified to at least 95% purity (Genemed), and biotinylated were injected (500 μg) via tail vein and allowed to circulate for 1 hr. […] Fluorescence images were acquired with an Olympus IX70 inverted fluorescence microscope/Magnafire software (Olympus). […]

[2] = tested on: CD34+CD31−CD45− cells (MSC) from lung; test: Synchronous in vivo phage display biopanning, clones recovered from lung MSC (LSC); design: species or system mouse; details: percent of sequenced phage clones carrying the insert in lung after 4 rounds of synchronous in vivo biopanning on CD34+CD31−CD45− cells
Description: (§3) Phage Library Screening: Random peptide libraries based on the M13-derived bacteriophage vector fUSE5 displaying inserts CX7C, CX8C, and CX9C on the pIII protein were admixed (1:1:1) to the combined 10^10 TU of mixed library for the screen performed based on the synchronous biopanning in vivo upon tail vein injection (see for example, US20050074747 and Arap, et al., Nat. Med. 8:121-127, 2002; Kolonin, et al., FASEB J. 20: 979-981, 2006).
(§4) For competitive homing experiment, 5×10^9 TU for each of the 11 chosen phage clones were admixed and the combined 5.5×10^10 TU was injected. For validation of individual clones, 1×10^10 TU for each phage clones was injected. After 1 hr of circulation and heart perfusion with 10 ml of phosphate buffer saline (PBS), WAT, tibia/femurs, bone-associated skeletal muscle, and lungs were collected. Bone marrow was isolated by flushing tibia/femurs. Hematopoietic and endothelial cells were depleted from cell suspensions of each organ by Dynabeads (Invitrogen) coated with anti-TER119, anti-CD31, and anti-CD45 antibodies (BD Biosciences), after which the remaining cells were processed by FACS to purify CD34+CD31−CD45− cells. Bound phage were recovered by infecting K91 E. coli, quantified by phage transforming unit (TU) counting, and processed for sequencing of the peptide-coding DNA as described in Arap, et al. 2002, ibid and Kolonin, et al., 2006, ibid. For identification of conserved peptide motifs, ClustalW2 software was used.
(§5) Methods for isolation of MSC by fluorescence-activated cell sorting (FACS) from organ cell suspensions based on the C34+CD31−CD45− immunophenotype (FIG. 8B) were combined with phage display and optimized for ASC. By adapting the previously described “synchronous in vivo biopanning” method of (Kolonin et al., 2006, ibid), a mixture of cyclic CX7C, CX8C, and CX9C (C: disulfide-bonded cysteines; X: any amino acid) random peptide libraries was screened (FIG. 1A). This approach made it possible to select MSC probes from the pool of over 10^11 combinatorial peptides. Throughout the screen, progressive enrichment in the number of phage particles recovered on MSC from WAT, as well as from the chosen control organs: lung, bone marrow, and skeletal muscle (FIG. 1B) was observed.
(§6) After 4 rounds of synchronous in vivo biopanning, eight CX7C and CX8C sequences repeatedly recovered from ASC with frequency above 1% were identified, which were termed WAT1 through WAT8 (see Table 1 below). In parallel, a matched number of peptide inserts homing to lung stromal cells (LSC) were sequenced as a control. None of the WAT-homing peptides were enriched in the lung. Four sequences repeatedly recovered in the lung with frequency above 1%, were termed LU1 through LU4 (see Table 1 below). […] Because the focus of this study is WAT-specific MSC, this clone was excluded from further analysis. Other selected peptides were subjected to an in vivo competition assay in order to identify those with the highest specificity of binding. Equal amounts of phage for the 11 clones displaying peptides WAT1 through WAT7 (SEQ ID NOS: 1-14) and LU1 through LU4 (SEQ ID NOS: 17-24) were admixed and injected into a mouse. Homing specificity of each clone was assessed by quantifying frequency of phage coding for each peptide selected on C34+CD31−CD45− cells isolated from either WAT or lung.
(§7) Shown in Table 1 above are the percent (%) of the sequenced phage clones that carried the indicated WAT or LU insert present within WAT (% in WAT) or lung (% in LUNG) following 4 rounds of synchronous in vivo biopanning on CD34+CD31−CD45− cells.

[3] = tested on: C34+CD31−CD45− cells isolated from lung; test: In vivo competition (re-homing) assay of 11 admixed phage clones, lung; design: species or system mouse; details: equal amounts of 11 phage clones mixed and injected; percent of sequenced clones on C34+CD31−CD45− cells from lung
Method: as §4, §6

[4] = tested on: CD34+CD31−CD45− cells (MSC) from WAT; test: Synchronous in vivo phage display biopanning, clones recovered from WAT MSC (ASC); design: species or system mouse; details: percent of sequenced phage clones carrying the insert in WAT after 4 rounds of synchronous in vivo biopanning on CD34+CD31−CD45− cells
Description: as §3, §4, §5, §6, §7

[5] = tested on: WAT CD34+CD31−CD45− cells (ASC) versus lung CD34+CD31−CD45− cells (LSC); test: Homing of individual phage-peptide clones injected separately, TU on WAT vs lung MSC; type: in vivo, mouse; details: individual phage clones injected into mice, FIG. 1C
Description: FIGS. 1A-C depict the screen for MSC-homing peptides. (A) depicts the schematic for a screen for peptides homing to organ-specific MSC populations. […] In every selection round, erythroid (TER119+), endothelial (CD31+) and hematopoietic (CD45+) cells were immunodepleted and then FACS was used to collect CD34+CD31−CD45− cells (MSC) from WAT, lung, bone marrow, and skeletal muscle. (B) Phage-peptides bound to WAT MSC (ASC), in parallel with phage-peptides bound to MSC of control organs, were quantified, amplified, pooled, and used for the next round of biopanning. Increased recovery of phage transforming units (TU) in successive rounds reflects the enrichment of phage-peptides homing to MSC of individual target organs. (C) Relative specificity of ASC homing assessed for individual phage-peptide clones separately injected into mice as a ratio of TU recovered on WAT to CD34+CD31−CD45− to TU recovered on lung CD34+CD31−CD45− cells. Fd-Tet: control insertless phage. Values shown are mean±SD for triplicate measurements.
For competitive homing experiment, 5×10^9 TU for each of the 11 chosen phage clones were admixed and the combined 5.5×10^10 TU was injected. […] Bound phage were recovered by infecting K91 E. coli, quantified by phage transforming unit (TU) counting, and processed for sequencing of the peptide-coding DNA as described in Arap, et al. 2002, ibid and Kolonin, et al., 2006, ibid. […]

[6] = tested on: stroma/vasculature of lung; test: Biodistribution of peptide-displaying phage by anti-phage immunofluorescence, lung; type: in vivo, mouse; details: intravenous injection, immunofluorescence of tissue sections
Description: as §1, §2

[7] = tested on: C34+CD31−CD45− cells isolated from WAT; test: In vivo competition (re-homing) assay of 11 admixed phage clones, WAT; design: species or system mouse; details: equal amounts of 11 phage clones mixed and injected; percent of sequenced clones on C34+CD31−CD45− cells from WAT
Method: as §4, §6

**Q.** Which “co-localization with endothelial cells or CD45+ hematopoietic cells in WAT” value [1] does the source give for `NCCCC[C@@H]1NC(=O)[C@H](Cc2c[nH]c3ccccc23)NC(=O)[C@H](CO)NC(=O)[C@@H](N)CSSC[C@@H](C(=O)O)NC(=O)[C@H](CCC(=O)O)NC(=O)CNC(=O)[C@H](Cc2ccccc2)NC(=O)[C@H](Cc2c[nH]c3ccccc23)NC(=O)[C@H](Cc2ccc(O)cc2)NC1=O` [WAT-7, SWKYWFGE] here?
**A.** Its value is “did not co-localize”.

**Q.** AVYRSTG [LU-1] was tested. Which “% in LUNG” value [2] did it give?
**A.** Its value is 71.6%.

**Q.** And the “Re-home to Lung (%)” value [3]?
**A.** Its value is 52.2%.

**Q.** And the “% in WAT” value [4]?
**A.** Its value is 0%.

**Q.** For CWLGEWLGC [mPep], which “specificity of homing to ASC compared to lung MSC” value [5] is on record?
**A.** The value was “modest preference for ASC; also recorded: did not display any WAT specificity”.

**Q.** With ESGFPTVG [LU-2, control] as the molecule, how does the “% in LUNG” value [2] read?
**A.** The value was 14.7%.

**Q.** And the “Re-home to Lung (%)” value [3]?
**A.** Its value is 40.2%.

**Q.** What about the “phage accumulation in lung” value [6] of the same molecule?
**A.** The value was “associated with the stroma/vasculature of lung”.

**Q.** And the “% in WAT” value [4]?
**A.** The value was 0%.

**Q.** How did the “specificity of homing to ASC compared to lung MSC” value [5] turn out when GQWLGNWL [WAT-8] was run?
**A.** The value was “modest preference for ASC”.

**Q.** And the “% in LUNG” value [2]?
**A.** Its value is 0%.

**Q.** And the “Re-home to Lung (%)” value [3]?
**A.** Its value is 13.6%.

**Q.** What about the “Re-home to WAT (%)” value [7] of the same molecule?
**A.** The value was 0%.

**Q.** And the “% in WAT” value [4]?
**A.** The value was 13.6%.

**Q.** For GSGGMSPS [WAT-6], which “% in LUNG” value [2] is on record?
**A.** The value was 0%.

**Q.** And the “Re-home to Lung (%)” value [3]?
**A.** Its value is 1.9%.

**Q.** And the “Re-home to WAT (%)” value [7]?
**A.** The value was 0%.

**Q.** And the “% in WAT” value [4]?
**A.** Its value is 1.9%.

**Q.** IRGKAGR [LU-4] was tested. Which “% in LUNG” value [2] did it give?
**A.** The value was 5.2%.

**Q.** And the “Re-home to Lung (%)” value [3]?
**A.** Its value is 1.1%.

**Q.** What about the “Re-home to WAT (%)” value [7] of the same molecule?
**A.** Its value is 0%.

**Q.** And the “% in WAT” value [4]?
**A.** The value was 0%.

**Q.** What does the source list for KHYGGGVA [WAT-1]?
**A.** % in LUNG [2]: 0%; Re-home to Lung (%) [3]: 9.1%; Re-home to WAT (%) [7]: 1.1%; % in WAT [4]: 9.1%

**Q.** Which results are given for LGVGPGF [LU-3]?
**A.** % in LUNG [2]: 5.2%; Re-home to Lung (%) [3]: 1.1%; Re-home to WAT (%) [7]: 0%; % in WAT [4]: 0%

**Q.** Which results are given for LRQGNPT [WAT-5]?
**A.** % in LUNG [2]: 0%; Re-home to Lung (%) [3]: 1.9%; Re-home to WAT (%) [7]: 0%; % in WAT [4]: 1.9%

**Q.** For RFLLPQG [WAT-3], which “% in LUNG” value [2] is on record?
**A.** Its value is 0%.

**Q.** And the “Re-home to Lung (%)” value [3]?
**A.** Its value is 3.9%.

**Q.** What about the “Re-home to WAT (%)” value [7] of the same molecule?
**A.** The value was 0%.

**Q.** What about the “% in WAT” value [4] of the same molecule?
**A.** The value was 3.9%.

**Q.** With YEGSEVS [WAT-4] as the molecule, how does the “% in LUNG” value [2] read?
**A.** The value was 0%.

**Q.** And the “Re-home to Lung (%)” value [3]?
**A.** Its value is 2.9%.

**Q.** What about the “Re-home to WAT (%)” value [7] of the same molecule?
**A.** The value was 0%.

**Q.** What about the “% in WAT” value [4] of the same molecule?
**A.** The value was 2.9%.
